Source: US9738902B2, “Modified PYR/PYL receptors activated by ligands” (priority 2013, dated 2017)

Key:
[1] = target: T1, PYR1 K59R F108A S122G A160V (Arabidopsis thaliana, UniProt O49686, A160V/F108A/K59R/S122G); test: Y2H NNK Mutagenesis (HAB1, X-gal); assay type: cell-based
T1 construct: expressed in transfected cells; host or cells: S. cerevisiae Y190 pACT-HAB1
Experimental: (§1) The preceding efforts identified PYR1^K59R,F108A,S122G, which is responsive to mandipropamid concentrations as low as 1 μM. We next attempted to improve the mandipropamid receptor by screening for additional pocket-located mutations that improve compound responsiveness. We subjected PYR1^K59R,F108A,S122G to two separate mutagenesis experiments. We first examined the effects of adding single additional mutations at each of the other 23 ligand-contacting residues that are not altered in the PYR1^K59R,F108A,S122G backbone, using NNK codon-randomization primers. Each NNK primer was used to generate a pool of PYR1^K59R,F108A,S122G receptors containing additional mutations at a single ligand-contacting residue. DNA for this mutant pool was prepared and then transformed into a pACT-HAB1 MAV99 reporter strain, which allows URA3 based selection of active receptors (Peterson et al., 2010). The pooled yeast cells were plated on media containing 0.5 μM mandipropamid, a concentration too low to allow growth of a control MAV99 pACT-HAB1 reporter strain expressing pBD-PYR1^K59R,F108A,S122G. […] Mutants enabling ligand-dependent interactions were sequenced and plasmid DNA for these mutants was isolated and introduced into Y190 pACT-HAB1 so that X-gal staining could be utilized to evaluate receptor sensitivity. This process was repeated for each of the remaining 22 NNK primers. These efforts yielded 10 mutations (V81C, V81I, V81T, V83L, L87A, F159L, F159M, F159V, A160V, V164I) that enhance the mandipropamid sensitivity of PYR1^K59R,F108A,S122G (see entries labeled “NNK Mutagenesis Screen” in Table 1).

[2] = target: T2, PYR1 K59R F108A S122G F159L (Arabidopsis thaliana, UniProt O49686, F108A/F159L/K59R/S122G); test: Y2H NNK Mutagenesis (HAB1, X-gal); assay type: cell-based
T2 construct: expressed in transfected cells; host or cells: S. cerevisiae Y190 pACT-HAB1
Experimental: as §1

[3] = target: T3, PYR1 K59R F108A S122G F159V (Arabidopsis thaliana, UniProt O49686, F108A/F159V/K59R/S122G); test: Y2H NNK Mutagenesis (HAB1, X-gal); assay type: cell-based
T3 construct: expressed in transfected cells; host or cells: S. cerevisiae Y190 pACT-HAB1
Experimental: as §1

[4] = target: T4, PYR1 K59R F108A S122G L87A (Arabidopsis thaliana, UniProt O49686, F108A/K59R/L87A/S122G); test: Y2H NNK Mutagenesis (HAB1, X-gal); assay type: cell-based
T4 construct: expressed in transfected cells; host or cells: S. cerevisiae Y190 pACT-HAB1
Experimental: as §1

[5] = target: T5, PYR1 K59R F108A S122G V164I (Arabidopsis thaliana, UniProt O49686, F108A/K59R/S122G/V164I); test: Y2H NNK Mutagenesis (HAB1, X-gal); assay type: cell-based
T5 construct: expressed in transfected cells; host or cells: S. cerevisiae Y190 pACT-HAB1
Experimental: as §1

[6] = target: T6, PYR1 K59R F108A S122G V81C (Arabidopsis thaliana, UniProt O49686, F108A/K59R/S122G/V81C); test: Y2H NNK Mutagenesis (HAB1, X-gal); assay type: cell-based
T6 construct: expressed in transfected cells; host or cells: S. cerevisiae Y190 pACT-HAB1
Experimental: as §1

[7] = target: T7, PYR1 K59R F108A S122G V81T (Arabidopsis thaliana, UniProt O49686, F108A/K59R/S122G/V81T); test: Y2H NNK Mutagenesis (HAB1, X-gal); assay type: cell-based
T7 construct: expressed in transfected cells; host or cells: S. cerevisiae Y190 pACT-HAB1
Experimental: as §1

[8] = system: PYR1 Y58H K59R V81I F108A F159L; test: Y2H Combinatorial Mutagenesis II (HAB1, X-gal); assay type: cell-based, Arabidopsis
From the text: Both of the above optimization experiments led to the identification of the following mutations that, when introduced one at a time, enhance the mandipropamid sensitivity of PYR1^K59R,F108A,S122G: Y58H, V81C, V81I, V81T, V83L, L87A, F159L, F159M, F159V, A160V and V164I. Given that these each enhance sensitivity on their own, we tested if combinations of these mutations might generate more sensitive receptors. Mutagenic primers for each of the mutations were designed and used simultaneously with the QuickChange Lightning Multi Site-Directed Mutagenesis kit (Agilent, USA) with PYR1^K59R,F108A,S122G template DNA. Individual clones were sequenced to identify bona fide combination mutants, which were transformed into the Y190 pACT-HAB1 yeast strain and assayed for mandipropamid sensitivity. These efforts led to the identification of several improved receptors (“Combinatorial Mutagenesis Screen II”, Table 1), including PYR1^Y58H,K59R,V81I,F108A,S122G,F159L, a hextuple mutant that we have named PYR1^MANDI. Yeast reporter strains expressing this mutant are responsive to mandipropamid concentrations as low as 2 nM (Table 1). Thus, the 5-step mutagenesis protocol we followed led to the construction of a mandipropamid responsive receptor with nanomolar sensitivity.

PYR1-OX = test: qRT-PCR of ABA-regulated genes RD29B and RAB18; assay type: in vivo, Arabidopsis; conditions: 2 μM mandipropamid, 8 hours
Experimental: One of ABA's major effects is to regulate gene expression. We therefore examined the effects of ABA and mandipropamid on gene expression in wild type, PYR-OX, MDP1 and MPD2 transgenic plants. Seed of the wild type or transgenic lines were surface sterilized, stratified for 4 days at 4° C. and then grown for 10 days at room temperature under continuous illumination in a liquid culture consisting of 0.5×MS salts and 0.5% sucrose and grown with continuous shaking to provide aeration. After 10 days, the culture solutions were adjusted to contain 50 μM ABA, 2 μM mandipropamid, or a mock treatment. After 8 hours exposure to the test compounds RNA was isolated using RNAEasy™ Plant RNA isolation kit (Qiagen, USA) and treated with DNAse. The purified RNA was utilized in qRT-PCR reactions using primers for the ABA-regulated genes RD29B or RAB18. Biological triplicate and triple technical replicate measurements were conducted. To perform qRT-PCR analyses, cDNA was generated from 5 μg of total RNA using superscript reverse transcriptase III (Invitrogen, USA), in reaction mixture containing a oligo-dT20 (SEQ ID NO:110) and a ribosomal RNA primer. Real-time quantitative PCR analysis was performed by ΔCt method of relative quantification. PCR mixtures contained cDNA, Maxima® SYBR green/Fluorescein qPCR master mix (Fermentas, USA) and 330 nM of each gene-specific primer. RT-PCRs were conducted using a BioRad CFX96 Real-Time PCR System and the data were processed using the BioRad CFX Manager software (BioRad, USA). PCRs were performed under the following cycling conditions: 3 min at 95° C., followed by 40 cycles of 10 sec at 95° C., 10 sec at 55° C. and 30 sec at 72° C. in 96-well optical reaction plates (BioRad, USA). The specificity of amplicons was verified by melting curve (disassociation) analysis (60-95° C.) after 40 cycles. Input cDNA was normalized using an internal control gene, PEX4 (AT5G25760).

T7 sequence (O49686 whole entry K59R/V81T/F108A/S122G): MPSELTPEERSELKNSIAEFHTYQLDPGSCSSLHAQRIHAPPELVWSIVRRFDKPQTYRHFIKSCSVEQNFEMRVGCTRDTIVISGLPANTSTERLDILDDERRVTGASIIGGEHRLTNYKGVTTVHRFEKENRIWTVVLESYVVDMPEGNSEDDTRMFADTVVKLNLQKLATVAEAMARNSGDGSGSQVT
T7 sequence (Q9CAJ0 23-511 partner): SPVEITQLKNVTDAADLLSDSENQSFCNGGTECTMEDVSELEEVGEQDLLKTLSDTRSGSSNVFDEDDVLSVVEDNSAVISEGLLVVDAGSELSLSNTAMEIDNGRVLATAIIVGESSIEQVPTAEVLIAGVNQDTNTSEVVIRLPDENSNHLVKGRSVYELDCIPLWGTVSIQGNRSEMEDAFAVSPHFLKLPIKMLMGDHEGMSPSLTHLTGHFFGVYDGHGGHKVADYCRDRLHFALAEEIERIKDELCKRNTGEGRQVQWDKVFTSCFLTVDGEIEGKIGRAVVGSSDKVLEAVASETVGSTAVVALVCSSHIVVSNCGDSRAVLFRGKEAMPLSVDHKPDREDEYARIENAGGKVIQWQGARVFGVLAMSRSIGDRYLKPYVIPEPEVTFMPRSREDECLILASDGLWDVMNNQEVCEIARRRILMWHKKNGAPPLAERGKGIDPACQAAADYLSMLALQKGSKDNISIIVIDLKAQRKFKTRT
T6 sequence (O49686 whole entry K59R/V81C/F108A/S122G): as the sequence (O49686 whole entry K59R/V81T/F108A/S122G) above, with T81C counted along it
T6 sequence (Q9CAJ0 23-511 partner): as the sequence (Q9CAJ0 23-511 partner) above
T4 sequence (O49686 whole entry K59R/L87A/F108A/S122G): as the sequence (O49686 whole entry K59R/V81T/F108A/S122G) above, with T81V, L87A counted along it
T4 sequence (Q9CAJ0 23-511 partner): as the sequence (Q9CAJ0 23-511 partner) above
T1 sequence (O49686 whole entry K59R/F108A/S122G/A160V): as the sequence (O49686 whole entry K59R/V81T/F108A/S122G) above, with T81V, A160V counted along it
T1 sequence (Q9CAJ0 23-511 partner): as the sequence (Q9CAJ0 23-511 partner) above
T5 sequence (O49686 whole entry K59R/F108A/S122G/V164I): as the sequence (O49686 whole entry K59R/V81T/F108A/S122G) above, with T81V, V164I counted along it
T5 sequence (Q9CAJ0 23-511 partner): as the sequence (Q9CAJ0 23-511 partner) above
T2 sequence (O49686 whole entry K59R/F108A/S122G/F159L): as the sequence (O49686 whole entry K59R/V81T/F108A/S122G) above, with T81V, F159L counted along it
T2 sequence (Q9CAJ0 23-511 partner): as the sequence (Q9CAJ0 23-511 partner) above
T3 sequence (O49686 whole entry K59R/F108A/S122G/F159V): as the sequence (O49686 whole entry K59R/V81T/F108A/S122G) above, with T81V, F159V counted along it
T3 sequence (Q9CAJ0 23-511 partner): as the sequence (Q9CAJ0 23-511 partner) above

Molecule C#CCOc1ccc(CCNC(=O)C(OCC#C)c2ccc(Cl)cc2)cc1OC (stereo not drawn) [Mandipropamid, mandipropamid] has a Threshold [1] of 0.25 µM, a Threshold [2] of 0.05 µM and a Threshold [3] of 0.25 µM. For the same molecule, the Threshold [4] was 0.25 µM, the Threshold [5] was 0.25 µM and the Threshold [6] was 0.25 µM. The Threshold [7] was 0.25 µM, the Threshold [8] was 0.01 µM and the “transcription of RD29B and RAB18” value (PYR1-OX) was “does not do so”.
